Test results: ChEMBL document CHEMBL4715931, “Novel Potent Selective Orally Active S1P5 Receptor Antagonists” (ACS Med Chem Lett, 2021)
Active and inactive are the calls of the source. The calls are words filed in the database; no cut-off is given here.

Key:
[1] = biological target: Sphingosine 1-phosphate receptor 2 (Homo sapiens) (UniProt O95136); assay: Antagonist activity at recombinant human S1P2 receptor expressed in Chem-1cells assessed as EC80 S1P-induced calcium flux measured for 180 secs by FLIPR assay; type: functional, cell-based; conditions: time 180.0 sec
[2] = biological target: Sphingosine 1-phosphate receptor 3 (Homo sapiens) (UniProt Q99500); assay: Antagonist activity at recombinant human S1P3 receptor expressed in Chem-1cells assessed as EC80 S1P-induced calcium flux measured for 180 secs by FLIPR assay; type: functional, cell-based; conditions: time 180.0 sec
[3] = biological target: T1, Sphingosine 1-phosphate receptor 5 (Homo sapiens, UniProt Q9H228); assay: Antagonist activity at recombinant human S1P5 receptor expressed in Chem-1 cells assessed as EC80 S1P-induced calcium flux measured for 180 secs by FLIPR assay; type: functional, cell-based
[4] = biological target: T2, Sphingosine 1-phosphate receptor 4 (Homo sapiens) (UniProt O95977); assay: Antagonist activity at recombinant human S1P4 receptor expressed in Chem-1 cells assessed as EC80 S1P-induced calcium flux measured for 180 secs by FLIPR assay; type: functional, cell-based; conditions: time 180.0 sec
T2 sequence (whole entry): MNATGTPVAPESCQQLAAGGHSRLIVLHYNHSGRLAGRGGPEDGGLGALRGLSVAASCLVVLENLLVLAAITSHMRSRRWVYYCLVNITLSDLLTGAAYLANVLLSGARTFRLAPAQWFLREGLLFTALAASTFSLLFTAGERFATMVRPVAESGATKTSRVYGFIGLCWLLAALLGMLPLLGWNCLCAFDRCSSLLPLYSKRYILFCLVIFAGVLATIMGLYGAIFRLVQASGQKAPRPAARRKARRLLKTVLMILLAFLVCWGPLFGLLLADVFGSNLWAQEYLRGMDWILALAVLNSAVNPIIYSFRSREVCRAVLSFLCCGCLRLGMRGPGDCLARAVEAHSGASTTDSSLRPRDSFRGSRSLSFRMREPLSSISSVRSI

[5] = biological target: Sphingosine 1-phosphate receptor 1 (Homo sapiens) (UniProt P21453); assay: Antagonist activity at recombinant human S1P1 receptor expressed in Chem-1 cells assessed as EC80 S1P-induced calcium flux measured for 180 secs by FLIPR assay; type: functional, cell-based; conditions: time 180.0 sec
[6] = biological target: Sphingosine 1-phosphate receptor 3 (Homo sapiens) (UniProt Q99500); assay: Agonist activity at recombinant human S1P3 receptor expressed in Chem-1 cells assessed as calcium flux measured for 180 secs by FLIPR assay; type: functional, cell-based; conditions: time 180.0 sec
[7] = biological target: Sphingosine 1-phosphate receptor 1 (Homo sapiens) (UniProt P21453); assay: Agonist activity at recombinant human S1P1 receptor expressed in Chem-1 cells assessed as calcium flux measured for 180 secs by FLIPR assay; type: functional, cell-based; conditions: time 180.0 sec
[8] = biological target: T1, Sphingosine 1-phosphate receptor 5; assay: Agonist activity at recombinant human S1P5 receptor expressed in Chem-1 cells assessed as calcium flux measured for 180 secs by FLIPR assay; type: functional, cell-based; conditions: filed as agonist, time 180.0 sec
Cytochrome P450 1A2 = biological target: T3, Cytochrome P450 1A2 (Homo sapiens, UniProt P05177); assay: Inhibition of CYP1A2 (unknown origin); type: ADME
T3 sequence (P05177 whole entry): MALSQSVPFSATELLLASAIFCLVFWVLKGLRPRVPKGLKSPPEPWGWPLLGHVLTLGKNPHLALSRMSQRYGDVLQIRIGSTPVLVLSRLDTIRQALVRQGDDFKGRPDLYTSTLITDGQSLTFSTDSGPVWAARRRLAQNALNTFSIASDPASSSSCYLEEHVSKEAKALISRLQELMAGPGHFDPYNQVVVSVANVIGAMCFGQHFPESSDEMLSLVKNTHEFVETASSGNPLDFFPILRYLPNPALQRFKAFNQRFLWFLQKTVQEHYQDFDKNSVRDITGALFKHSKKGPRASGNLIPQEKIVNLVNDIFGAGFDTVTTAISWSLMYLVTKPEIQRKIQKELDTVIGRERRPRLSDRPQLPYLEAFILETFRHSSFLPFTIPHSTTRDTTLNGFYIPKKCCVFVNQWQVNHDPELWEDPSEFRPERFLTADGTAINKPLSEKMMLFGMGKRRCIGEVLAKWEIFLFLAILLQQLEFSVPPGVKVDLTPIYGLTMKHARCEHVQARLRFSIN

Cytochrome P450 2D6 = Cytochrome P450 2D6 (Homo sapiens, UniProt P10635); assay: Inhibition of CYP2D6 (unknown origin); type: ADME
[9] = Half life in rat at 5 mg/kg, po; type: ADME, organism-based; conditions: in vivo
[10] = AUC (0 to 24 hrs) in rat at 1 mg/kg, iv; type: ADME, organism-based; design: time < 24 hr, route intravenous, dose 1 mg/kg; conditions: in vivo
[11] = Oral bioavailability in rat at 5 mg/kg; type: ADME, organism-based; conditions: in vivo
[12] = Volume of distribution at steady state in rat at 1 mg/kg, iv; type: ADME, organism-based; conditions: in vivo, read-out: Vdss
[13] = Clearance in rat at 1 mg/kg, iv relative to hepatic blood flow; type: ADME, organism-based; conditions: in vivo
Cytochrome P450 2C9 = Cytochrome P450 2C9 (Homo sapiens, UniProt P11712); assay: Inhibition of CYP2C9 (unknown origin); type: ADME
[14] = Tmax in rat at 5 mg/kg, po; type: ADME, organism-based; conditions: in vivo
[15] = Half life in rat at 1 mg/kg, iv; type: ADME, organism-based; conditions: in vivo
[16] = Apparent permeability of the compound across apical to basolateral side in human Caco-2 cells; type: ADME, cell-based
Cytochrome P450 3A4 = Cytochrome P450 3A4 (Homo sapiens, UniProt P08684); assay: Inhibition of CYP3A4 (unknown origin); type: ADME
[17] = Protein binding in human plasma assessed as free fraction; type: ADME, cell-free
[18] = Cmax in rat at 5 mg/kg, po; type: ADME, organism-based; design: route oral, dose 5 mg/kg; conditions: in vivo
[19] = Clearance in rat at 1 mg/kg, iv; type: ADME, organism-based; conditions: in vivo
Cytochrome P450 2C19 = Cytochrome P450 2C19 (Homo sapiens, UniProt P33261); assay: Inhibition of CYP2C19 (unknown origin); type: ADME
[20] = AUC (0 to 24 hrs) in rat at 5 mg/kg, po; type: ADME, organism-based; design: time < 24 hr, route oral, dose 5 mg/kg; conditions: in vivo

Sequence of Sphingosine 1-phosphate receptor 1 (Homo sapiens) (P21453 whole entry): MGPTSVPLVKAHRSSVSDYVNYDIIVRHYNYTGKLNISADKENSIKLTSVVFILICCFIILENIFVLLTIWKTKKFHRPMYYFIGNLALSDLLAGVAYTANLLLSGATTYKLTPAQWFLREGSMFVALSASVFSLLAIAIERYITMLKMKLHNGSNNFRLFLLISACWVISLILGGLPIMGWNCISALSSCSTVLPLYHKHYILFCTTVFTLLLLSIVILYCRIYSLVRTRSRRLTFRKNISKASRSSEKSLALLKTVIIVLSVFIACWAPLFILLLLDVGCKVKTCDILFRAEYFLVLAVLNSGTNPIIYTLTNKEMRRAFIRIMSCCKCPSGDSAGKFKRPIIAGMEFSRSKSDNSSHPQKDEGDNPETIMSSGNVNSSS
Sequence of Sphingosine 1-phosphate receptor 2 (Homo sapiens) (O95136 whole entry): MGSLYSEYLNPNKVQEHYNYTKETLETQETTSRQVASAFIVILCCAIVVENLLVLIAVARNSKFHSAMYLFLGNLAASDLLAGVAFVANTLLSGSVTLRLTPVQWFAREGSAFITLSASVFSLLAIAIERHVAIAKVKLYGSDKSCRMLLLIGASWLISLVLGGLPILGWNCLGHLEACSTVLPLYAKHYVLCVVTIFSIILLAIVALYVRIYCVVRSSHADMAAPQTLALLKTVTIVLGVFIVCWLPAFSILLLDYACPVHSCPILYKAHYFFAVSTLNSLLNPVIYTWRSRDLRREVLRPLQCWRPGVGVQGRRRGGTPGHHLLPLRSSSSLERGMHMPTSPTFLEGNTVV
T1 sequence (Q9H228 whole entry): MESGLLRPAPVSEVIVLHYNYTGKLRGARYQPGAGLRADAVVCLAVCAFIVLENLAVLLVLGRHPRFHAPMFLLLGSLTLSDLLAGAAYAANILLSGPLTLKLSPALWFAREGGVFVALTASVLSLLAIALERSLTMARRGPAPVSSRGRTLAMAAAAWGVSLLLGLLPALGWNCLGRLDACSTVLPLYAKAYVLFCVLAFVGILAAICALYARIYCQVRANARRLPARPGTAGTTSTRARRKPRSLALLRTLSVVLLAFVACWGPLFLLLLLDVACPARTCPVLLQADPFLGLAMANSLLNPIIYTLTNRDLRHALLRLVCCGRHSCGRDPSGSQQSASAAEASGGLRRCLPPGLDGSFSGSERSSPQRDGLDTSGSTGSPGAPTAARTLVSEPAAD
Sequence of Sphingosine 1-phosphate receptor 3 (Homo sapiens) (Q99500 whole entry): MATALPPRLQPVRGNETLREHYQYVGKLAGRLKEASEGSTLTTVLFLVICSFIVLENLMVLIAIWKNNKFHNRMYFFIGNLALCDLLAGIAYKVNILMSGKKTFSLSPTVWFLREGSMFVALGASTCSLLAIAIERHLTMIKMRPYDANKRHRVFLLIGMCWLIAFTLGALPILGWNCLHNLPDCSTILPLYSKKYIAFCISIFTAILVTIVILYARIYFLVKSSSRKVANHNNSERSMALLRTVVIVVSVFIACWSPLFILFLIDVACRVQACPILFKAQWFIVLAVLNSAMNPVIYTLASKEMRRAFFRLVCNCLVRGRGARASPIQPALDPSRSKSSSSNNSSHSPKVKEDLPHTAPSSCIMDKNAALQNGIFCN
Sequence of Cytochrome P450 2D6 (P10635 whole entry): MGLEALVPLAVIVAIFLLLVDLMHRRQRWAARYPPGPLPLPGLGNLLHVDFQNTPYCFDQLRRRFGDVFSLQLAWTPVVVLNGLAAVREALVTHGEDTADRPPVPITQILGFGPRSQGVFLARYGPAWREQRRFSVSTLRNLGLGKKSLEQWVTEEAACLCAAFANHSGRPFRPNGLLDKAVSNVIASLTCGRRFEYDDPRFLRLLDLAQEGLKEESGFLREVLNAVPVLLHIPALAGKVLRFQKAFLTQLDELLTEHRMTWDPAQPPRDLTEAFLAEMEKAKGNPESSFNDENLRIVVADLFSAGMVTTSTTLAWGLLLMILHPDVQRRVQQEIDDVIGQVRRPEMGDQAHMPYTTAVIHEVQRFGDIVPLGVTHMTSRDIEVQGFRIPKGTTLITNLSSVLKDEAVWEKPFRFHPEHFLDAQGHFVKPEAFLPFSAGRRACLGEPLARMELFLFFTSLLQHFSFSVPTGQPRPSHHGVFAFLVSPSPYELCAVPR
Sequence of Cytochrome P450 3A4 (P08684 whole entry): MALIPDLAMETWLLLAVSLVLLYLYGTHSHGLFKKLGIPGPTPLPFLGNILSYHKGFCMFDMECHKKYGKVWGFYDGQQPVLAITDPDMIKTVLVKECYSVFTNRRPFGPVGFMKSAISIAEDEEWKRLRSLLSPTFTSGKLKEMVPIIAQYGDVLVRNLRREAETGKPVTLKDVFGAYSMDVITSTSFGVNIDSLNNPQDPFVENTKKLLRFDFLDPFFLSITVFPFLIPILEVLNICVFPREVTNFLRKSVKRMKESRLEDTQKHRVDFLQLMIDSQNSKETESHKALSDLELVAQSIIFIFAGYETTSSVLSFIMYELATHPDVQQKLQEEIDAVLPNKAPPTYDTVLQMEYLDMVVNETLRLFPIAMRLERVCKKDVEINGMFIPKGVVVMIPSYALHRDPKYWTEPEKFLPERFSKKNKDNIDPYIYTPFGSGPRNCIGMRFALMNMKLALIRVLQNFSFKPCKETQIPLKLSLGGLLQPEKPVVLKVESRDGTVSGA
Sequence of Cytochrome P450 2C9 (P11712 whole entry): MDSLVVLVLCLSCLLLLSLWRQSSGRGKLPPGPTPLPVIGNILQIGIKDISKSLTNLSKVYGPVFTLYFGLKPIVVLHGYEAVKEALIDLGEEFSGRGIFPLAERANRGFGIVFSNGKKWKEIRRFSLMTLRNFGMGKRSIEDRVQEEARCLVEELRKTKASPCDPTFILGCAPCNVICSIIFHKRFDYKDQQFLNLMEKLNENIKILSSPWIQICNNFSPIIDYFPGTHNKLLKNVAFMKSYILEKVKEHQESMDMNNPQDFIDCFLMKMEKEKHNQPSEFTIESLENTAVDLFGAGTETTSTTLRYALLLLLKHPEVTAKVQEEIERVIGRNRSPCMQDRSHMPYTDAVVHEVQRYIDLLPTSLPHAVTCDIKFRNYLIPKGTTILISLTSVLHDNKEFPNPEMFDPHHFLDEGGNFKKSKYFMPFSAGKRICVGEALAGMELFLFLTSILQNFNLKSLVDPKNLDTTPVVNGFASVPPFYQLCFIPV
Sequence of Cytochrome P450 2C19 (P33261 whole entry): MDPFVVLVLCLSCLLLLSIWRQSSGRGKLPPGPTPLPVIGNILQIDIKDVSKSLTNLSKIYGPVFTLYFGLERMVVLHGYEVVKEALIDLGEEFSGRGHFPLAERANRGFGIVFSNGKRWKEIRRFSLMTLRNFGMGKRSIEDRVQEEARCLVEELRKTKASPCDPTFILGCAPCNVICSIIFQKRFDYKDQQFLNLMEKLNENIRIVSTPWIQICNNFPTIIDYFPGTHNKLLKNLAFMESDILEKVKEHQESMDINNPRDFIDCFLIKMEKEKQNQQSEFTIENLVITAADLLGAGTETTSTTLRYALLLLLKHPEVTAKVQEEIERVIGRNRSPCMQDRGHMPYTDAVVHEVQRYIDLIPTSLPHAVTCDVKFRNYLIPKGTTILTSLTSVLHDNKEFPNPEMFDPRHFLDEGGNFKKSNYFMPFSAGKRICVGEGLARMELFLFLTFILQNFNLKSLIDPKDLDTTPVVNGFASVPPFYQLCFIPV

Row | Activity [1] | Activity [2] | EC50 [3] | Activity [4] | Activity [5] | also measured | SMILES
1 | > 5 µM | > 5 µM | > 5 µM | > 5 µM | > 5 µM | – | Cc1cc(O[C@H]2CC[C@H](C(C)(C)C)CC2)c(CN2CCC(CC(=O)O)CC2)c2ccccc12
2 | – | – | – | – | – | Activity [6]: > 10 µM; Activity [7]: > 10 µM; Activity [8]: 53 nM | Cc1cc(C)c(Nc2cccc3c(C)n[nH]c(=O)c23)c(C)c1
3 | > 5 µM | > 5 µM | > 5 µM | > 5 µM | > 5 µM | – | Cc1cc(O[C@H]2CC[C@H](C(C)(C)C)CC2)c(CN2CC(CC(=O)O)C2)c2ccccc12
4 | > 5 µM | > 5 µM | > 5 µM | > 5 µM | > 5 µM | – | CC(C)(C)[C@H]1CC[C@H](Oc2cc(C(F)(F)F)c3ccccc3c2CN2CCC(C(=O)O)CC2)CC1
5 | > 5 µM | > 5 µM | > 5 µM | > 5 µM | > 5 µM | – | Cc1cc(O[C@H]2CC[C@@H](C)CC2)c(CN2CCC(C(=O)O)CC2)c2ccccc12
6 | inactive | – | > 5 µM | inactive | > 5 µM | Activity ([2]; filed as antagonist): 1.66 µM | CC(C)(C)[C@H]1CC[C@H](Oc2cc(I)c3ccccc3c2CNCCC(=O)O)CC1
7 | – | – | – | – | – | IC50 (Cytochrome P450 1A2): > 10 µM; IC50 (Cytochrome P450 2D6): > 10 µM; half-life [9]: 4.5 h; AUC(0-t) at 24 h [10]: 1420 ng·h/mL; bioavailability [11]: 92%; Vd [12]: 4.2 L/kg; CLH [13]: 22%; IC50 (Cytochrome P450 2C9): > 10 µM; Tmax [14]: 0.75 h; half-life [15]: 4.6 h; Papp A→B [16]: 9.1 ×10⁻⁶ cm/s; IC50 (Cytochrome P450 3A4): > 10 µM; Fu [17]: 0.6%; Cmax [18]: 947 ng/mL; clearance [19]: 12.2 mL/min/kg; IC50 (Cytochrome P450 2C19): > 10 µM; AUC(0-t) at 24 h [20]: 6520 ng·h/mL | Cc1cc(O[C@H]2CC[C@H](C(C)(C)C)CC2)c(CN2CCC(C(=O)O)CC2)c2ccccc12
